{"source": "patent US20060120972A1", "about": "“9-(N-methyl-piperidyliden-4)-thioxanthene for treatment of pulmonary hypertension” (priority 2004, published 2006)", "key": {"[1]": {"tested_on": "plasma protein extravasation at the blood vessels within the Dura mater after mCPP application", "experiment": "mCPP model in guinea pigs: plasma protein extravasation (EvansBlue)", "type": "in vivo", "details": "for Plasma protein extravasation as EvansBlue extinction at 600 nm: 2 min before 1 μg/kg mCPP, guinea pig dura mater", "protocol": "In accordance to the protocol published by Markowitz et. al; (1987) and Olesen et. al; (2000), guinea pigs were used to determine the amount of plasma protein released at the blood vessels within the Dura mater after mCPP application.\n2 minutes later 1 μg/kg body weight mCPP were injected and followed by the i.v. application of EvansBlue as marker for the protein plasma extravasation. 15 minutes later animals were transcranial perfused and decapitated. A defined area of the dura mater was isolated and transferred into an eppendorf tube containing 200 μl formamid. Because EvansBlue binds to plasma protein, the amount of bound marker dye is a measure of extravasation of plasma protein. Formamid dissolves EvansBlue from the protein which can be calorimetric detected and quantified at 600 nm."}, "[2]": {"biological_target": "T1, human Histamine H2 receptor (Homo sapiens, UniProt P25021)", "T1 construct": "expressed in transfected cells", "T1 sequence (P25021 whole entry)": "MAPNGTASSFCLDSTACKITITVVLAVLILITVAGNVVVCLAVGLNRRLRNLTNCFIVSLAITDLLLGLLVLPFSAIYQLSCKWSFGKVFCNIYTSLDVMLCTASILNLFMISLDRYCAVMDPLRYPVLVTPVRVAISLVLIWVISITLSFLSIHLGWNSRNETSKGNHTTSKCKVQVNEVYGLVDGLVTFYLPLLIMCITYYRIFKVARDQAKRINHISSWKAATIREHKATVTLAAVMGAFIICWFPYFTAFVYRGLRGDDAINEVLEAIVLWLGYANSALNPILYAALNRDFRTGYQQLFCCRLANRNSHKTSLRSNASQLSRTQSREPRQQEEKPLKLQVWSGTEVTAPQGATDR", "experiment": "Cloned human H2 receptor binding assay", "protocol": "(§1) CHO cells were stably transfected with an expression plasmid pCineohH1, pCineohH2, pCineohH3 and pCineohH4 encoding the human Histamine H1, H2, H3 or H4 receptor, respectively. Recombinant cell lines were harvested after confluent growth, homogenized in ice-cold 50 mM Na2/potassium phosphate buffer (pH 7.4) and used for radioligand binding studies. Cell homogenates (40-50 μg of protein) were incubated for 30 min at 25° C. in 50 mM Na2/potassium phosphate buffer (pH 7.4) in 400 μl with the various concentrations of either [^3H]-mepyramine, [^3H]-thiotidine, [^3H]-R-a-Methylhistamine, and [^3H]-pyramilamine for cells expressing recombinant human H1, H2, H3 and H4 receptors, respectively. The nonspecific binding was defined in the presence of 1 μM mianserin. […] The incubations were stopped by rapid dilution with 3 ml of ice-cold 50 mM Na2/potassium phosphate buffer (pH 7.4). […] Filters were washed twice in 3 ml of buffer and radioactivity retained on the filters was measured by liquid scintillation counting.\n(§2) EC80 values were calculated from corresponding dose-response experiment using 5-HT, histamine, epinephrine (alpha 1A adrenergic receptor), dopamine (D2 dopaminergic receptor), and acetylcholine (M1 muscarinic receptor) as agonists."}, "[3]": {"biological_target": "T2, human Histamine H4 receptor (Homo sapiens, UniProt Q9H3N8)", "T2 construct": "expressed in transfected cells", "T2 sequence (Q9H3N8 whole entry)": "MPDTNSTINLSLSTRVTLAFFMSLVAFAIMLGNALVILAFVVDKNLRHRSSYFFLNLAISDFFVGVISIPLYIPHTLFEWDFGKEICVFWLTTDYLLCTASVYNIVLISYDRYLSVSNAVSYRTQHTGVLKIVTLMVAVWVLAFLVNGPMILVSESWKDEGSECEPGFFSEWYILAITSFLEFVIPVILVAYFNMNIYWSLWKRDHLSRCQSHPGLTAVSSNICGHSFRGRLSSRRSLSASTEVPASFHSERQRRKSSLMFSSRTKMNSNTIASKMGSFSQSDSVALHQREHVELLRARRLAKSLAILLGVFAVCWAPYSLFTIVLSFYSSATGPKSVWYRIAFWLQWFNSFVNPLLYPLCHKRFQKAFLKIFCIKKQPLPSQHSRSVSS", "experiment": "Cloned human H4 receptor binding assay", "protocol": "as §1, §2"}, "human 5-HT2B receptor": {"biological_target": "T3, human 5-HT2B receptor (Homo sapiens, UniProt P41595)", "T3 construct": "expressed in transfected cells; host or cells: HEK 293 (transient)", "T3 sequence (P41595 whole entry)": "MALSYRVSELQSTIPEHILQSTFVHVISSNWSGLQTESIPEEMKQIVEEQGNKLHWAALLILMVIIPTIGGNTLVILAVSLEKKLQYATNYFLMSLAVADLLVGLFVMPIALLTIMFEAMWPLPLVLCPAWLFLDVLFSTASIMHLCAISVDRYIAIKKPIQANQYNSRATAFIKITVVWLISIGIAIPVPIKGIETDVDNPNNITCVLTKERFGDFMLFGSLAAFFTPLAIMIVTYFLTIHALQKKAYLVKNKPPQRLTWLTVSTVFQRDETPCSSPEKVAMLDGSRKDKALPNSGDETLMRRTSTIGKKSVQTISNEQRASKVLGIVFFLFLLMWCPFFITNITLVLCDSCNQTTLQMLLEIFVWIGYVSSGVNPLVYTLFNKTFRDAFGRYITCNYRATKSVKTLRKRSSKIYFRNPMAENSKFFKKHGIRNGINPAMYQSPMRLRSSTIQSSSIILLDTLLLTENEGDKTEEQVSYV", "experiment": "Cloned human 5-HT2B receptor binding assay", "details": "5-HT2B versus 5HT2C; listed as compound of the preferred embodiments"}, "[4]": {"biological_target": "T4, human Histamine H1 receptor (Homo sapiens, UniProt P35367)", "T4 construct": "expressed in transfected cells", "T4 sequence (P35367 whole entry)": "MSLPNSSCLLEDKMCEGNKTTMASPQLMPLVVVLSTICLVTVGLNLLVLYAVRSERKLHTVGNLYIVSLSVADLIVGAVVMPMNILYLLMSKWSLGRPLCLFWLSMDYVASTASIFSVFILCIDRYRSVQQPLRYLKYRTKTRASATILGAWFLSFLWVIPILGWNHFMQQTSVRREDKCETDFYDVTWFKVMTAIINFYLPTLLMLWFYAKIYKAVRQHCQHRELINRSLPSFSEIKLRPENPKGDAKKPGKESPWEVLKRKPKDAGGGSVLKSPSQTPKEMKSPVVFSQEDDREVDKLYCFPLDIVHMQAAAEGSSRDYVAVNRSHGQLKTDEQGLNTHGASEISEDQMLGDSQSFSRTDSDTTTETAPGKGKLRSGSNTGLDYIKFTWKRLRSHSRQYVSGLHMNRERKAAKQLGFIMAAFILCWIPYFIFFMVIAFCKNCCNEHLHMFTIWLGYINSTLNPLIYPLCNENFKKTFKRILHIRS", "experiment": "Cloned human H1 receptor binding assay", "protocol": "as §1, §2"}, "[5]": {"biological_target": "T5, human Histamine H3 receptor (Homo sapiens, UniProt Q9Y5N1)", "T5 construct": "expressed in transfected cells", "T5 sequence (Q9Y5N1 whole entry)": "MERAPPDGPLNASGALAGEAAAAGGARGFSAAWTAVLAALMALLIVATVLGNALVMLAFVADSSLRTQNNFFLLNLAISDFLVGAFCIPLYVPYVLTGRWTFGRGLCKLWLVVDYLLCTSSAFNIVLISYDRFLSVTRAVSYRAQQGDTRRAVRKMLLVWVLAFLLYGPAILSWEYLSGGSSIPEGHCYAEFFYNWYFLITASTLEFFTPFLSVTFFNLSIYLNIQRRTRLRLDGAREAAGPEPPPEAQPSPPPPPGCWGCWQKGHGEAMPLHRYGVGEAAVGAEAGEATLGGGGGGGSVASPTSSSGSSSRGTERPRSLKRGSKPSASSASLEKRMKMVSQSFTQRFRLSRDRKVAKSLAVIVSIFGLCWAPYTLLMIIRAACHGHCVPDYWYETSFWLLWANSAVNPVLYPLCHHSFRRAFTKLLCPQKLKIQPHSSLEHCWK", "experiment": "Cloned human H3 receptor binding assay", "protocol": "as §1, §2"}}, "note": "Entries after “also recorded” stand apart in the source; their conditions may differ.", "data": [{"smiles": "CC[C@@H](CO)NC(=O)[C@@H]1C=C2c3cccc4c3c(cn4C)C[C@H]2N(C)C1", "note": "[Methysergide]", "values": [{"measurement": "Plasma protein extravasation as EvansBlue extinction at 600 nm", "setting": "[1]; dose 0.1 μg/kg i.v.", "value": "0.265 ± 0.034"}, {"measurement": "Plasma protein extravasation as EvansBlue extinction at 600 nm", "setting": "[1]; dose 1 μg/kg i.v.", "value": "0.250 ± 0.027"}, {"measurement": "Plasma protein extravasation as EvansBlue extinction at 600 nm", "setting": "[1]; dose 10 μg/kg i.v.", "value": "0.228 ± 0.064"}, {"measurement": "Plasma protein extravasation as EvansBlue extinction at 600 nm", "setting": "[1]; dose 100 μg/kg i.v.", "value": "0.189 ± 0.026"}]}, {"smiles": "CN1CCC(=C2c3ccccc3Sc3ccccc32)CC1", "note": "[Pimethixene, 9-(N-methyl-piperidyliden-4)-thioxanthene]", "values": [{"measurement": "Affinity for the human H2 receptor (in words)", "setting": "[2]", "value": "no affinity"}, {"measurement": "pKi values H2", "setting": "[2]", "value": "low activity"}, {"measurement": "Affinity for the human H4 receptor (in words)", "setting": "[3]", "value": "no affinity"}, {"measurement": "pKi values H4", "setting": "[3]", "value": "low activity"}, {"measurement": "Selectivity of affinity for 5-HT2B receptor versus 5HT2C receptor", "setting": "human 5-HT2B receptor", "value": "selective affinity; also recorded: much higher affinity"}, {"measurement": "Affinity to the human H1 receptor (in words)", "setting": "[4]", "value": "high affinity"}, {"measurement": "Affinity for the human H3 receptor (in words)", "setting": "[5]", "value": "no affinity"}, {"measurement": "pKi values H3", "setting": "[5]", "value": "low activity"}, {"measurement": "Plasma protein extravasation as EvansBlue extinction at 600 nm", "setting": "[1]; dose 0.001 μg/kg i.v.", "value": "0.269 ± 0.022"}, {"measurement": "Plasma protein extravasation as EvansBlue extinction at 600 nm", "setting": "[1]; dose 0.01 μg/kg i.v.", "value": "0.157 ± 0.040"}, {"measurement": "Plasma protein extravasation as EvansBlue extinction at 600 nm", "setting": "[1]; dose 0.1 μg/kg i.v.", "value": "0.126 ± 0.028"}]}, {"smiles": "Clc1cccc(N2CCNCC2)c1", "note": "[mCPP]", "values": [{"measurement": "EvansBlue extinction, positive control (mCPP agonist)", "setting": "[1]; mCPP 1 μg/kg alone, no test compound, negative control 0,130±0,024", "value": "0,300±0,038"}]}, {"smiles": "CN1CCC(=C2c3ccccc3CCc3sccc32)CC1", "note": "[Pizotifen]", "values": [{"measurement": "Plasma protein extravasation as EvansBlue extinction at 600 nm", "setting": "[1]; dose 1 μg/kg i.v.", "value": "0.404 ± 0.025"}, {"measurement": "Plasma protein extravasation as EvansBlue extinction at 600 nm", "setting": "[1]; dose 10 μg/kg i.v.", "value": "0.144 ± 0.035"}, {"measurement": "Plasma protein extravasation as EvansBlue extinction at 600 nm", "setting": "[1]; dose 100 μg/kg i.v.", "value": "0.230 ± 0.018"}]}]}
